Laboratory results reported in patent publication US5023364A, “Phenoxyalkylcarboxylic acid derivatives and process for their preparation” (Kyorin Pharmaceutical Co., Ltd., priority 1987, dated 1991).

Tested on: leukotriene D4 -induced bronchoconstriction
Test: Inhibition of bronchoconstriction in guinea pigs (leukotriene D4-induced, modified Konzett-Rossler method)
Assay type: in vivo, Male Hartley guinea pig
Conditions: p.o., 2 hours before leukotriene D4 challenge (3 μg/kg, i.v.)
Description: Inhibition of bronchoconstriction in guinea pigs
Male Hartley guinea pig weighing about 450 g was anesthetized with sodium pentobarbital (30 mg/kg,i.p.), and the changes in transpulmonary pressure was measured by modifying the method of Konzett-Rossler (J. Harvey, et al., J. Pharmacol. Method. 9, 147-155, 1983) under an artificial ventilation. Bronchoconstrictor response was induced by bolus injection of leukotriene D4 (3 μg/kg,i.v.) from jugular vein. Animal was treated with indomethacin (10 mg/kg,i.v.) and propranolol (1 mg/kg,i.v.) before leukotriene D4 challenge. Test compounds suspended in 5% Gum Arabic solution were administered orally 2 hours before leukotriene D4 challenge.

| SMILES | Inhibition (%) (50 mg/kg) | Inhibition (%) (12.5 mg/kg) | Inhibition (%) (1.5 mg/kg) | Inhibition (%) (6.25 mg/kg) |
| --- | --- | --- | --- | --- |
| CCCc1c(OCCCCCOc2c(C(C)=O)ccc(OCC(=O)O)c2CCC)ccc(C(C)=O)c1O [Ref. 2, [4Acetyl-3-[5-(4-acetyl-3-hydroxy-2-propylphenoxy)-pentyloxy]-2-propylpheoxy]acetic acid, reference compound] | 16.9 | – | – | – |
| CCCc1c(OCCOc2ccc(C(C)=O)c(OCCCC(=O)O)c2CCC)ccc(C(C)=O)c1O [Example 6, 4-[6-acetyl-3-[2-(4-acetyl-3-hydroxy-2-propylphenoxy)-ethoxy]-2-propylphenoxy]butanoic acid] | 86.6 | 28.6 | – | – |
| CCCc1c(OCCCOc2ccc(C(C)=O)c(OCCCC(=O)O)c2CCC)ccc(C(C)=O)c1O [Example 5, 4-[6-Acetyl-3-[3-(4-acetyl-3-hydroxy-2-propylphenoxy)propoxy]-2-propylphenoxy]butanoic acid] | 82.7 | 59.0 | 27.4 | 41.7 |
| CCCc1c(OCCCOc2ccc(C(C)=O)c(OCC(=O)O)c2CCC)ccc(C(C)=O)c1O [Ref. 1, [6-acetyl-3-[3-(4-acetyl3-hydroxy-2-propylphenoxy)propoxy]-2-propylphenoxy]acetic acid, reference compound] | 56.1 | -12.1 | – | – |
| CCCc1c(OCCCOc2ccc(C(C)=O)c(OCCCCC(=O)O)c2CCC)ccc(C(C)=O)c1O [Example 7, 5-[6-acetyl-3-[3(4-acetyl-3-hydroxy-2-propylphenoxy)propoxy]-2-propylphenoxy]pentanoic acid] | 94.8 | 45.2 | – | – |
| CCCc1c(OCCCCOc2ccc(C(C)=O)c(OCCCC(=O)O)c2CCC)ccc(C(C)=O)c1O [Example 8, 4-[6-acetyl-3-[4-(4-acetyl-3-hydroxy-2-propylphenoxy)butoxy]-2-propylphenoxy]butanoic acid] | 83.1 | – | – | – |
